Test results: BindingDB's records for PubMed 36395995 (University of Jinan, 2023)

target: Maltase-glucoamylase (Homo sapiens, UniProt O43451); test: Inhibition of alpha-glucosidase (unknown origin)
Sequence (O43451 whole entry): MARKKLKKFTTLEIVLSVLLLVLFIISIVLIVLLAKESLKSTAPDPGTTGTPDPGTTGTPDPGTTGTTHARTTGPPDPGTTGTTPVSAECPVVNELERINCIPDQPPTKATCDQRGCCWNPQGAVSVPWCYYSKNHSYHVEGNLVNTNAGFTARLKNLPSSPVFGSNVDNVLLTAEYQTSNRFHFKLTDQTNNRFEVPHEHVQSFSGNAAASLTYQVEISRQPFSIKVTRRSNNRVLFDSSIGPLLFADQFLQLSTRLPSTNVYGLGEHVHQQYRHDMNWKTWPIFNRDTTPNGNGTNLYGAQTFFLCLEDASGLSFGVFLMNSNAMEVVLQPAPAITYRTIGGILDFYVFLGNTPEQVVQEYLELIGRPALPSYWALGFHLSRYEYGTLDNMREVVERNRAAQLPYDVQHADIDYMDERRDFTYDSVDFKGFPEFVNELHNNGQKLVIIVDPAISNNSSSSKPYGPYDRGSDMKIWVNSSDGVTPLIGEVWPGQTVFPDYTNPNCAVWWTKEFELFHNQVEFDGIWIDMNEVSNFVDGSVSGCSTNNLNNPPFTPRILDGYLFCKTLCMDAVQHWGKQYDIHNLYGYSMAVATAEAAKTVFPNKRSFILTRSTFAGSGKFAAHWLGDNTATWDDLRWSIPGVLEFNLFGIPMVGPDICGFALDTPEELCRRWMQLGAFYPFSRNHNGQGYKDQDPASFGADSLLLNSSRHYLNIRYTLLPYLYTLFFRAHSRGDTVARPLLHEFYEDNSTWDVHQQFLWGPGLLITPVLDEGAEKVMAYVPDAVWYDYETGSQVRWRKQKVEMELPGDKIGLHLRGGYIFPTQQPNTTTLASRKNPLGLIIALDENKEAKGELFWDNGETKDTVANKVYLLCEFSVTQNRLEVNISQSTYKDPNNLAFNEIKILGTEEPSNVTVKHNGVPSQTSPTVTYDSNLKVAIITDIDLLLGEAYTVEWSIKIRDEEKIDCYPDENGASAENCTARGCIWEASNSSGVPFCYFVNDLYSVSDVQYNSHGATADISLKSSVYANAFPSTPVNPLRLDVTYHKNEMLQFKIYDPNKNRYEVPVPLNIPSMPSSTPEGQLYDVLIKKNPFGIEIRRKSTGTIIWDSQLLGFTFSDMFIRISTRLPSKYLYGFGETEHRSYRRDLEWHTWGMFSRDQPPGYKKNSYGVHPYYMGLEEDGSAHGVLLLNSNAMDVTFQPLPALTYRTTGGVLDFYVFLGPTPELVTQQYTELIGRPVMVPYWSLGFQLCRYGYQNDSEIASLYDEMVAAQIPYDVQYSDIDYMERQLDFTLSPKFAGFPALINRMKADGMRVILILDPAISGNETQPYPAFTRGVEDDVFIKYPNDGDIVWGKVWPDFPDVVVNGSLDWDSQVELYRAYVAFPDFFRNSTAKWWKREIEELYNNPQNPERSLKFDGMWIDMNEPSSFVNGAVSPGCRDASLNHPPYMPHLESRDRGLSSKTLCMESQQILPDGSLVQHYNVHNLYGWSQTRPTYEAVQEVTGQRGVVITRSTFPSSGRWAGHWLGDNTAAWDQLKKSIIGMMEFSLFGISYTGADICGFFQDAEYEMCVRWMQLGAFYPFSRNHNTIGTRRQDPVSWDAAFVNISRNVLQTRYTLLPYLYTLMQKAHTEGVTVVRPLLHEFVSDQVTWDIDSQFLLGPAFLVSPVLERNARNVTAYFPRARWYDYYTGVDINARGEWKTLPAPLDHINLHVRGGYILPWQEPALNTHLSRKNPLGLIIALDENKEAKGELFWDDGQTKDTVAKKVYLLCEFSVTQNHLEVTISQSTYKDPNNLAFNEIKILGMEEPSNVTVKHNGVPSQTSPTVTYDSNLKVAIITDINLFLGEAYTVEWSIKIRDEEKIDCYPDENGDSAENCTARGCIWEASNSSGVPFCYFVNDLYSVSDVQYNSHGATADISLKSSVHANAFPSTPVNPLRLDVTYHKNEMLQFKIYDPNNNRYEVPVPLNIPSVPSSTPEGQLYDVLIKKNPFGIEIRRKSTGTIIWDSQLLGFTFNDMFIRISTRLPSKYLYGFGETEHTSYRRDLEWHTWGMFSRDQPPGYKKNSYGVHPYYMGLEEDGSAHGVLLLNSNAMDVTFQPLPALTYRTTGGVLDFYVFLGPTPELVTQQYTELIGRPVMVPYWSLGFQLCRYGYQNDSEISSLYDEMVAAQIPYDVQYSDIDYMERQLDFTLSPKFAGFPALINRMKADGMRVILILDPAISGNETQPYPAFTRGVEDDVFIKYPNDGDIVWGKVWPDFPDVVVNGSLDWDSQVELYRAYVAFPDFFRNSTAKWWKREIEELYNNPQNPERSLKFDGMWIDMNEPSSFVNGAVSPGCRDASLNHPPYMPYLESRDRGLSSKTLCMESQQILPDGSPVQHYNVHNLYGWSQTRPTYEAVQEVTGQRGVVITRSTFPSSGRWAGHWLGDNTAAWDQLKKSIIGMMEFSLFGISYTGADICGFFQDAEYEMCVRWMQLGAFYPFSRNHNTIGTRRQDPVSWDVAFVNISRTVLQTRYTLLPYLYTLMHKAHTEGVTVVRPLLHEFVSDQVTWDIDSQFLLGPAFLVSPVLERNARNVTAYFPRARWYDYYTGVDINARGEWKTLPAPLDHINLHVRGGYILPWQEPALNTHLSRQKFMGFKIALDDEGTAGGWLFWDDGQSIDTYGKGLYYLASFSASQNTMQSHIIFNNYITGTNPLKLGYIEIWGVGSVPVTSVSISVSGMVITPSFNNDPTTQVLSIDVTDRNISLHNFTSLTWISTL

Row | Structure (SMILES) | IC50 [µM]
1 | O=C(Nc1sc2c(c1C(=O)NCc1ccccc1)CCCCC2)c1cccnc1 | 63.4
2 | COc1cc(CNC(=O)c2c(NC(=O)c3cccnc3)sc3c2CCC3)ccc1O | 93.6
3 | COc1cc(CNC(=O)c2c(NC(=O)c3cccnc3)sc3c2CCCC3)ccc1O | 9.9
4 | O=C(Nc1sc2c(c1C(=O)NCc1cccnc1)CCCC2)c1cccnc1 | 507
5 | O=C(Nc1sc2c(c1C(=O)NCc1ccccc1)CCC2)c1cccnc1 | 82.5
6 | O=C(Nc1sc2c(c1C(=O)NCc1ccccn1)CCCC2)c1cccnc1 | 64.1
7 | COc1ccc(CNC(=O)c2c(NC(=O)c3cccnc3)sc3c2CCCC3)cc1 | 30.2

Second part, the molecule after the results:

Row | IC50 [µM] | Structure (SMILES)
8 | 87.6 | COc1ccc(CNC(=O)c2c(NC(=O)c3cccnc3)sc3c2CCC3)cc1
9 | 87.8 | COC(=O)c1ccc(CNC(=O)c2c(NC(=O)c3cccnc3)sc3c2CCCC3)cc1
10 | 35.4 | COc1cc(CNC(=O)c2c(NC(=O)c3cccnc3)sc3c2CCCCC3)ccc1O
11 | 45.3 | O=C(Nc1sc2c(c1C(=O)NCc1ccccc1)CCCC2)c1cccnc1
